Converted amounts (≈) assume the structure as drawn. Where two headings read alike, the source gives them in different places. Bounds are passed on as bounds.

Data on four compounds can be found in patent US9920039B2, “1,2,4-Oxadiazol compounds active against gram-positive pathogens” (UNIVERSITÀ DEGLI STUDI DI MILANO—BICOCCA, priority 2013, dated 2018).

One data set concerns ATCC E. faecalis 29212. The experiment in a line: MIC by broth microdilution (Table 5). The data set is classed as cell-based, Enterococcus faecalis. As to the method: (§1) Dimethyl sulfoxide (DMSO) was used as solvent for all the synthesized compounds. An equal volume of the bacterial inoculum (1×10^6 CFU/mL) was added to each well on the microtitre plate containing 0.05 mL of the serial antibiotic dilutions. The microtitre plate was then incubated at 37° C. for 18-24 h after which each well was analysed for the presence of bacterial growth. The MIC was defined as the lowest concentration of antimicrobial agent able to cause inhibition of bacterial growth as shown by the lack of turbidity of the culture medium. […] Final DMSO concentrations were also taken into account in all the biological assays.

Data set [1] relates to 11 Linezolid-resistant CoNS. The experiment in a line: MIC summary on strain panel (Table 5). It counts as cell-based, Staphylococcus epidermidis, Staphylococcus hominis. To be noted: 11 Linezolid-resistant CoNS.
Source text: as §1, with “The in vitro antibacterial activity of the new agents was studied by determining their minimum inhibitory concentrations (MICs) by means of the broth microdilution method according to the Clinical and Laboratory Standards Institute (CLSI) guidelines.[16] Briefly, serial 2-fold dilutions of each compound were made using the Cation adjusted Mueller-Hinton broth (CAMHB) in microtitre plates with 96 wells. Dimethyl” for “Dimethyl”

Data set [2] concerns Staphylococcus aureus ATCC 29213. Put plainly: MIC by broth microdilution (CLSI). To be noted: read-out: MIC. It counts as cell-based.
Source text: (§2) Several well characterized for their antibiotic-susceptibility phenotype Staphylococcus aureus isolates were used for the determination of the in vitro antibacterial activity of the studied compounds. In particular, S. aureus ATCC 29213 reference standard strain and S. aureus M923 (collection strain) were used as MSSA strains. Among MRSA, S. aureus MU50 (ATCC 700699) reference standard strain and two collection strains (433 and F511) were used for susceptibility assays.
as §1, with “The in vitro antibacterial activity of the new agents was studied by determining their minimum inhibitory concentrations (MICs) by means of the broth microdilution method according to the Clinical and Laboratory Standards Institute (CLSI) guidelines.[16] Briefly, serial 2-fold dilutions of each compound were made using the Cation adjusted Mueller-Hinton broth (CAMHB) in microtitre plates with 96 wells. Dimethyl” for “Dimethyl”
(§3) The antimicrobial activities, summarized in Table 2, were determined by the “gold standard” method of broth microdilution, as recommended by the Clinical Laboratory Standards Institute (CLSI) (See the Experimental Section). […] In detail, the bacterial strains were tested: Staphylococcus aureus ATCC 29213, a clinical strain of methicillin-susceptible S. aureus (M923), S. aureus MU50 (methicillin-resistant—MRSA), and two methicillin-resistant clinical strains, 433 and F511.
(§4) The antimicrobial activities, summarized in Table 3, were determined by the “gold standard” method of broth microdilution, as recommended by the Clinical Laboratory Standards Institute (CLSI) (See the Experimental Section). The minimum inhibitory concentration (MIC) values were expressed in μg/mL. […] In detail, the tested bacterial strains were: Staphylococcus aureus ATCC 29213, a clinical strain of methicillin-susceptible S. aureus (M923), S. aureus MU50 (methicillin-resistant—MRSA) strain, and two methicillin-resistant clinical strains, 433 and F511.

Data set [3] has as its system 45 Linezolid-susceptible MRSA. Put plainly: MIC summary on strain panel (Table 5). It counts as cell-based, Staphylococcus aureus.
Source text: In particular, eleven linezolid-resistant coagulase-negative staphylococci (CoNS) (ten S. epidermidis and one S. hominis) were investigated. The eleven linezolid-resistant strains were isolated in several hospital settings between 2010 and 2011 from positive blood cultures. For the […], recently isolated from patients with cystic fibrosis, showing different profiles of multi-resistance to different classes of antimicrobials, was used (Table 4 and 5).
as §1, with “The in vitro antibacterial activity of the new agents was studied by determining their minimum inhibitory concentrations (MICs) by means of the broth microdilution method according to the Clinical and Laboratory Standards Institute (CLSI) guidelines.[16] Briefly, serial 2-fold dilutions of each compound were made using the Cation adjusted Mueller-Hinton broth (CAMHB) in microtitre plates with 96 wells. Dimethyl” for “Dimethyl”

For data set [4], the system named is Linezolid-resistant S. epidermidis Strains 1-10. The experiment in a line: MIC by broth microdilution (Table 5). It counts as cell-based, Staphylococcus epidermidis.
Source text: as §1, with “The in vitro antibacterial activity of the new agents was studied by determining their minimum inhibitory concentrations (MICs) by means of the broth microdilution method according to the Clinical and Laboratory Standards Institute (CLSI) guidelines.[16] Briefly, serial 2-fold dilutions of each compound were made using the Cation adjusted Mueller-Hinton broth (CAMHB) in microtitre plates with 96 wells. Dimethyl” for “Dimethyl”

Data set [5] deals with Linezolid-resistant S. hominis Strain 11. Put plainly: MIC by broth microdilution (Table 5). The note with it: S. hominis Strain 11, linezolid-resistant. The data set is classed as cell-based, Staphylococcus hominis.
Source text: as §1, with “The in vitro antibacterial activity of the new agents was studied by determining their minimum inhibitory concentrations (MICs) by means of the broth microdilution method according to the Clinical and Laboratory Standards Institute (CLSI) guidelines.[16] Briefly, serial 2-fold dilutions of each compound were made using the Cation adjusted Mueller-Hinton broth (CAMHB) in microtitre plates with 96 wells. Dimethyl” for “Dimethyl”

Data set [6] concerns methicillin-susceptible S. aureus (M923). The experiment in a line: MIC by broth microdilution (CLSI). To be noted: Staphylococcus aureus, MSSA M923, read-out: MIC. It counts as cell-based, Staphylococcus aureus.
Source text: as §2
as §1, with “The in vitro antibacterial activity of the new agents was studied by determining their minimum inhibitory concentrations (MICs) by means of the broth microdilution method according to the Clinical and Laboratory Standards Institute (CLSI) guidelines.[16] Briefly, serial 2-fold dilutions of each compound were made using the Cation adjusted Mueller-Hinton broth (CAMHB) in microtitre plates with 96 wells. Dimethyl” for “Dimethyl”
as §3, §4

Data set [7] relates to S. aureus MU50 (ATCC 700699), methicillin-resistant (MRSA). The experiment in a line: MIC by broth microdilution (CLSI). The data set is classed as cell-based, Staphylococcus aureus. To be noted: Staphylococcus aureus.
Source text: as §2
as §1, with “The in vitro antibacterial activity of the new agents was studied by determining their minimum inhibitory concentrations (MICs) by means of the broth microdilution method according to the Clinical and Laboratory Standards Institute (CLSI) guidelines.[16] Briefly, serial 2-fold dilutions of each compound were made using the Cation adjusted Mueller-Hinton broth (CAMHB) in microtitre plates with 96 wells. Dimethyl” for “Dimethyl”
as §3, §4

The next data set concerns MRSA clinical strain 433. Put plainly: MIC by broth microdilution (CLSI). The data set is classed as cell-based, Staphylococcus aureus. To be noted: Staphylococcus aureus, MRSA 433, read-out: MIC.
Source text: as §2
as §1, with “The in vitro antibacterial activity of the new agents was studied by determining their minimum inhibitory concentrations (MICs) by means of the broth microdilution method according to the Clinical and Laboratory Standards Institute (CLSI) guidelines.[16] Briefly, serial 2-fold dilutions of each compound were made using the Cation adjusted Mueller-Hinton broth (CAMHB) in microtitre plates with 96 wells. Dimethyl” for “Dimethyl”
as §3, §4

The subject of data set [8] is MRSA clinical strain F511. The experiment in a line: MIC by broth microdilution (CLSI). It counts as cell-based, Staphylococcus aureus. To be noted: Staphylococcus aureus.
Source text: as §2
as §1, with “The in vitro antibacterial activity of the new agents was studied by determining their minimum inhibitory concentrations (MICs) by means of the broth microdilution method according to the Clinical and Laboratory Standards Institute (CLSI) guidelines.[16] Briefly, serial 2-fold dilutions of each compound were made using the Cation adjusted Mueller-Hinton broth (CAMHB) in microtitre plates with 96 wells. Dimethyl” for “Dimethyl”
as §3, §4

The subject of data set [9] is 12 MRSE all LZD sensitive. The experiment in a line: MIC on strain panel (Table 4). The note with it: Staphylococcus epidermidis. The data set is classed as cell-based, Staphylococcus epidermidis.
Source text: as §1, with “The in vitro antibacterial activity of the new agents was studied by determining their minimum inhibitory concentrations (MICs) by means of the broth microdilution method according to the Clinical and Laboratory Standards Institute (CLSI) guidelines.[16] Briefly, serial 2-fold dilutions of each compound were made using the Cation adjusted Mueller-Hinton broth (CAMHB) in microtitre plates with 96 wells. Dimethyl” for “Dimethyl”

Data set [10] has as its system 6 ATCC (4MSSA, 2 MRSA)plus45 MRSA all LZD sensitive. The experiment in a line: MIC on strain panel (Table 4). The data set is classed as cell-based, Staphylococcus aureus. The note with it: 6 ATCC plus 45 MRSA.
Source text: as §1, with “The in vitro antibacterial activity of the new agents was studied by determining their minimum inhibitory concentrations (MICs) by means of the broth microdilution method according to the Clinical and Laboratory Standards Institute (CLSI) guidelines.[16] Briefly, serial 2-fold dilutions of each compound were made using the Cation adjusted Mueller-Hinton broth (CAMHB) in microtitre plates with 96 wells. Dimethyl” for “Dimethyl”

Setting [11] is: Staphylococcus aureus, ATCC29213, ATCC 29213, racemic form, Table 3.
[12] abbreviates: racemic form, Table 3, read-out: MIC.
Where [13] appears, read: racemic mixture, Table 2, read-out: MIC.

As for `CC(=S)NC[C@@H]1CN(c2ccc(-c3nc(C)no3)cc2)C(=O)O1` [Compound A4aR], the MIC in the data set with ATCC E. faecalis 29212 is > 128 µg/mL; in [2] (ATCC S. aureus 29213, resolved enantiomers, Table 5), 128 µg/mL (≈ 385 µM); in data set [4] (S. epidermidis Strain 1, linezolid-resistant) it was > 128 µg/mL; in [4] (S. epidermidis Strain 2, linezolid-resistant), > 128 µg/mL; in [4] (S. epidermidis Strain 3, linezolid-resistant) it was > 128 µg/mL; in data set [4] (S. epidermidis Strain 4, linezolid-resistant), > 128 µg/mL. For the same compound, the MIC is > 128 µg/mL in data set [4] (S. epidermidis Strain 5, linezolid-resistant); > 128 µg/mL in [4] (S. epidermidis Strain 6, linezolid-resistant); > 128 µg/mL in data set [4] (S. epidermidis Strain 7, linezolid-resistant); > 128 µg/mL in data set [4] (S. epidermidis Strain 8, linezolid-resistant); > 128 µg/mL in data set [4] (S. epidermidis Strain 9, linezolid-resistant); > 128 µg/mL in data set [4] (S. epidermidis Strain 10, linezolid-resistant). Also, the MIC in data set [5] is > 128 µg/mL. The MIC50 in data set [1] and in data set [3] was > 128 µg/mL each time. Further, the MIC90 in [1] was > 128 µg/mL. In data set [1], the MIC-range is > 128 µg/mL.
For the compound `Cc1noc(-c2ccc(N3CC(Cn4ccnn4)OC3=O)cc2F)n1` (racemic) [Compound B1b], the melting point was 176.2 to 177.8 °C. For the same compound, in [2] (setting [11]), the MIC is 25 µg/mL (≈ 72.6 µM). Further, the minimum inhibitory concentration (MIC) in data set [6] (racemic form, Table 3) was 25 µg/mL (≈ 72.6 µM). Besides, in data set [7] (setting [12]), the minimum inhibitory concentration (MIC) was 1.6 µg/mL (≈ 4.65 µM). Also, in the data set on MRSA clinical strain 433 (racemic form, Table 3), the MIC was determined as 6.25 µg/mL (≈ 18.2 µM). In [8] (setting [12]), the MIC turned out to be 12.5 µg/mL (≈ 36.3 µM).
The compound `Cc1noc(-c2ccc(N3CC(CN=[N+]=[N-])OC3=O)cc2)n1` (racemic) [Compound A2a, 3-(4′-(3″-methyl-1,2,4-oxadiazol-5-yl)-phenyl)-5-(azidometil)-oxazolidin-2-one] registered a melting point of 133.9 to 135 °C. For the same compound, the MIC in data set [2] (Staphylococcus aureus, ATCC29213, ATCC 29213, racemic mixture, Table 2) is > 50 µg/mL. In addition, the MIC in [6] (racemic mixture, Table 2) is > 50 µg/mL. The minimal inhibitory concentration (MIC) in data set [7] (setting [13]) is > 50 µg/mL. Moreover, in the data set on MRSA clinical strain 433 (racemic mixture, Table 2), the MIC was > 50 µg/mL. In addition, in data set [8] (setting [13]), the MIC is > 50 µg/mL.
On to `CNC(=S)NCC1CN(c2ccc(-c3nc(C)no3)cc2)C(=O)O1` (racemic) [Compound B4a, 1-((3-(4-(3-methyl-1,2,4-oxadiazol-5-yl)phenyl)-oxazolidin-2-one-5-yl)methyl)-3-methylthiourea], for which the melting point was 189.4 to 191.8 °C. In addition, the MIC50 in data set [9] (read-out: MIC50) was 64 µg/mL (≈ 184 µM). Moreover, in [9] (read-out: MIC90), the MIC90 is > 128 µg/mL. The MIC in data set [2] (setting [11]) was 6.25 µg/mL (≈ 18 µM). Further, the MIC-range in [10] (tested range ≤0.06 - >128) lay in the range of 1 to 16 µg/mL. The MIC50 in data set [10] (Staphylococcus aureus, read-out: MIC50) came out at 8 µg/mL. Also, the MIC90 in [10] (Staphylococcus aureus, read-out: MIC90) amounted to 16 µg/mL. Further, the MIC in data set [6] (racemic form, Table 3) was found to be 6.25 µg/mL (≈ 18 µM). The MIC in data set [7] (setting [12]) was determined as 1.6 µg/mL (≈ 4.61 µM). In the data set on MRSA clinical strain 433 (racemic form, Table 3), the MIC worked out at 3.12 µg/mL (≈ 9 µM). Also, in data set [8] (setting [12]), the MIC is 6.25 µg/mL (≈ 18 µM).
